# Source: EP2241312A1, “Use of compositions comprising urea for treating microbial infections” (ISDIN S.A., priority 2009, dated 2010)
# “And” between values parts separate entries of the source, which are not always exact repeats. Equal entries are not always repeated.
# System: LL-37
# Test: LL-37 expression in confluent human keratinocytes, time course and urea concentration series (real time PCR)
# Assay type: cell-based
# Conditions: for fold induction at 1000 µM / fold induction at 5000 µM / fold induction at 20000 µM / fold induction at 50000 µM / fold induction at 100000 µM / fold induction at 10000 µM: Homo sapiens, Keratinocyte; for fold induction at 20000 µM: 20mM urea
# Description: Primary human epidermal keratinocytes were prepared from neonatal foreskin as described previously (Grether-Beck et al, 1996, 2000, 2003, 2005, 2008) and maintained in culture under serum free conditions using a defined keratinocyte growth medium Keratinocyte SFM (Invitrogen, Heidelberg, Germany) supplemented with bovine pituitary extract (Invitrogen, Heidelberg, Germany) and recombinant epidermal growth factor (Invitrogen, Heidelberg, Germany). Cells were propagated up to passage 2 or 3 at 37°C and 5 % CO2 (Grether-Beck et al, 1996, 2000, 2003, 2005, 2008). For induction of differentiation NHEKs were seeded in 6well plates and grown up to confluence.
# For assessment of gene expression total RNA was extracted from frozen biopsies (Ø 4 mm) and gene expression measured by semiquantitative RT-PCR. For isolation of RNA from frozen skin biopsies, 600 µl lysis buffer from PeqGold Total RNA Kit (PeqLab, Erlangen, Germany) were added and the samples were disrupted in a MixerMill MM300 (Retsch, Haan, Germany) three times for 3 min with 30 Hz. 50 ng total RNA were used for cDNA synthesis. PCR reactions were performed in an Opticon 1 (MJ Research, Waltham, MA, USA) using Sybr QPCR Supermix w. Rox (Invitrogen, Karlsruhe, Germany). PCR conditions were as follows: activation of hot start taq polymerase 94° C 15 minutes; denaturation 95° C, 20 seconds; annealing, 55° C, 20 seconds; extension, 72° C 30 seconds. Each sample was subjected to PCR in double using the appropriate primer pairs for 45-50 cycles. For comparison of relative expression in real time PCR control cells and treated cells the 2 (-della delta C(T)) method was used (Livak KJ, and Schmittgen TD. Analysis of relative gene expression data using real time quantitative PCR and the 2 (-delta delta C(T)) method. Methods 2001: 25: 402 - 408). mRNA expression of the genes of interest was shown as fold induction as compared to untreated skin samples of the same volunteer. Table 1: Primer pairs for real time PCR
# For determination of relative gene expression in real time PCT the 2(-delta delta C(T))-method was used as described in Livak and Schmittgen (2001) "Analysis of relative gene expression data using real time quantitative PCR and the 2 (-delta delta C(T))-method" Methods 25: 401-408. For statistical analysis, the experimental data were analyzed using the Wilcoxon signed-rank test. […]
smiles,measurement,setting,value
NC(N)=O [urea],Expression of LL-37,"24h, 1mM urea, 1440 min, 1000 µM",1.9000
same,Expression of LL-37,"24h, 5mM urea, 1440 min, 5000 µM",1.7000
same,Expression of LL-37,"24h, 10mM urea, 1440 min, 10000 µM",1.7000
same,Expression of LL-37,"48h, 1mM urea, 2880 min, 1000 µM",3.0000
same,Expression of LL-37,"48h, 5mM urea, 2880 min, 5000 µM",2.2000 and 1.9000
same,Expression of LL-37,"72h, 1mM urea, 4320 min, 1000 µM",10.3000 and 11.4000
same,Expression of LL-37,"72h, 5mM urea, 4320 min, 5000 µM",7.1000
same,Expression of LL-37,"72h, 10mM urea, 4320 min, 10000 µM",1.7000 and 1.7300
same,Expression of LL-37,"72h, 50mM urea, 4320 min, 50000 µM",0.9000
same,Expression of LL-37,"96h, 1mM urea, 5760 min, 1000 µM",4.7000 and 5.5000
same,Expression of LL-37,"96h, 5mM urea, 5760 min, 5000 µM",4.2000
same,Expression of LL-37,"96h, 10mM urea, 5760 min, 10000 µM",3.4000
same,Expression of LL-37,"96h, 100mM urea, 5760 min, 100000 µM",1.0000
same,fold induction at 1000 µM,"24 h, 1mM urea",1.8
same,fold induction at 5000 µM,"24 h, 5mM urea",1.4
same,fold induction at 20000 µM,24 h,1.2
same,fold induction at 50000 µM,"24 h, 50mM urea",1.3
same,fold induction at 100000 µM,"24 h, 100mM urea",1.2
same,fold induction at 1000 µM,"48 h, 1mM urea",3.2
same,fold induction at 5000 µM,"48 h, 5mM urea",2.1
same,fold induction at 10000 µM,"48 h, 10mM urea",1.5
same,fold induction at 20000 µM,48 h,1.2
same,fold induction at 50000 µM,"48 h, 50mM urea",1.2
same,fold induction at 100000 µM,"48 h, 100mM urea",0.8
same,fold induction at 1000 µM,"72 h, 1mM urea",11.2
same,fold induction at 5000 µM,"72 h, 5mM urea",7.2
same,fold induction at 10000 µM,"72 h, 10mM urea",1.8
same,fold induction at 20000 µM,72 h,1.6
same,fold induction at 50000 µM,"72 h, 50mM urea",0.8
same,fold induction at 100000 µM,"72 h, 100mM urea",0.8
same,fold induction at 1000 µM,"96 h, 1mM urea",5
same,fold induction at 5000 µM,"96 h, 5mM urea",3.9
same,fold induction at 10000 µM,"96 h, 10mM urea",3.2
same,fold induction at 20000 µM,96 h,1.6
same,fold induction at 50000 µM,"96 h, 50mM urea",1.3
same,fold induction at 100000 µM,"96 h, 100mM urea",1.1
